# Measurements: article PMC8956739, “A synthetic lipopeptide targeting top-priority multidrug-resistant Gram-negative pathogens” (Nature Communications, 2022)
# Values joined by “and” are separate entries in the source; they are usually repeats but may differ in a detail not shown here. Equal values may be shown once. Residues, ends and D or L forms follow the SMILES beside them.
# How the values were obtained:
# [1] = system: P. aeruginosa FADDI-PA038; assay: Neutropenic mouse pneumonia model; type: in vivo; settings: for bacterial killing in lung at 24 h vs pre-treatment inoculum: 45 mg/kg/d IP in three divided doses every 8 h; for Tukey HSD diff, Pre-treatment minus treated group (Log10 CFU/lung) / Tukey HSD diff, Vehicle minus treated group (Log10 CFU/lung): Fig. a; for Log10 CFU/lung: Figure 3a, individual mice
# Method: (§1) The experimental methodology for the neutropenic mouse lung infection model was previously described in detail. Briefly, Swiss mice (female, 7-week-old, 22–28 g) were rendered neutropenic by intraperitoneal administration of cyclophosphamide, 4 days (150 mg/kg) and 1 day (100 mg/kg) prior to inoculation. Lung infection was established by the administration of 25 µL of early log-phase bacterial suspension (polymyxin-susceptible or resistant isolate, 4 × 10^7 CFU/mL), directly into the lungs via the trachea using a MicroSprayer™ device. Lipopeptide solutions were prepared in sterile saline. At 2 h after inoculation, mice (n = 3 or 4) were administered lipopeptide (45–240 mg/kg/d free base) or control (sterile saline) via an intraperitoneal or subcutaneous bolus injection in three divided doses every 8 h. At 0 or 24 h after the administration of lipopeptide solution or saline (control), animals were euthanized and lungs were collected and homogenized under sterile conditions. Homogenate was filtered and the filtrate was collected, serially diluted in sterile saline, and spread on nutrient agar plates. Agar plates were incubated at 37 °C overnight for bacterial colony counting and the bacterial load of the lung (log10 CFU/lung) in each mouse was calculated. In vivo efficacy was calculated as the difference of the log10 CFU/lung values between the treated mice at 24 h and the pre-treatment (control) at 0 h (Δlog10 CFU/lung = log10 [treated] CFU/lung − log10 [pre-treatment] CFU/lung).
# A. baumannii FADDI-AB051 = assay: Neutropenic mouse pneumonia model; type: in vivo; settings: for bacterial killing in lung at 24 h vs pre-treatment inoculum: 45 mg/kg/d IP in three divided doses every 8 h; for Tukey HSD diff, Pre-treatment minus treated group (Log10 CFU/lung) / Tukey HSD diff, Vehicle minus treated group (Log10 CFU/lung): Fig. b; for Log10 CFU/lung: Figure 3b, individual mice
# Method: as §1
# [2] = system: K. pneumoniae FADDI-KP065; assay: Neutropenic mouse pneumonia model; type: in vivo; settings: for bacterial killing in lung at 24 h vs pre-treatment inoculum: 45 mg/kg/d IP in three divided doses every 8 h; for Tukey HSD diff, Pre-treatment minus treated group (Log10 CFU/lung) / Tukey HSD diff, Vehicle minus treated group (Log10 CFU/lung): Fig. c; for Log10 CFU/lung: Figure 3c, individual mice
# Method: as §1
# [3] = Plasma pharmacokinetics in mice; type: in vivo, mouse
# Method: The plasma pharmacokinetic profiles of F365 and polymyxin B were assessed in Swiss mice (female, 7-week-old, 22–28 g) after a single intraperitoneal dose (5 mg/kg, n = 3). Blood samples were collected at various time points over 24 h post dosing for analysis. The plasma pharmacokinetic profiles of F365 (n = 5) and polymyxin B (1 mg/kg, n = 11) in Sprague-Dawley rats (male, 10-week-old, 280 to 330 g) were assessed after intravenous administration (1 min) of F365 and polymyxin B via an indwelling jugular vein cannula. Blood samples (~0.3 mL) were collected via an indwelling carotid artery cannula at various time points over 24 h post dosing. Urine samples were collected at 4 °C using a metabolic cage during the period between 0 and 24 h post dosing. Concentrations of F365 and polymyxin B in plasma and urine samples were determined using LC-MS/MS and pharmacokinetic analysis was conducted using WinNonlin (Pharsight Corp., Mountain View, CA). The ELF pharmacokinetic profiles of F365 and polymyxin B was determined in neutropenic Swiss mice (female, 7-week-old, 22–28 g) after subcutaneous injection (40 mg/kg, n = 3). Bronchoalveolar lavage (BAL) samples were collected at various time points over 24 h post dosing from the cannulated trachea using Milli-Q water as BAL washing media. The average volume of ELF in mice was calculated by the ratio of urea concentrations in plasma and BAL samples. Concentrations of F365 and polymyxin B in plasma and BAL were analyzed by LC-MS/MS. Pharmacokinetic parameters were calculated using a non-compartment model with WinNonlin. For mouse, rat, and human plasma protein binding of F365 and polymyxin B, pooled plasma samples (n = 3) from each species were spiked with F365 or polymyxin B. The spiked plasma samples were subjected to ultrafiltration and the corresponding filtrates were analyzed by LC-MS/MS to determine the concentration of F365 and polymyxin B and the protein binding in each species.
# [4] = system: P. aeruginosa PAM1723 (overexpresses MexAB-OprM); type: cell-based, Pseudomonas aeruginosa; settings: Leu-Nap hydrolysis
# Method: Bacterial strains were seeded in 50 mL of Luria-Bertani (LB) broth at OD600 0.05 and grown at 37 °C for 3-4 h until an OD600 of 0.6–0.8 was achieved. Bacterial cells were washed twice with 25 mL of buffer (50 mM sodium phosphate, 0.5% glucose, pH 7, with or without 1 mM Mg^2+), resuspended in 10 mL of the buffer, and then adjusted to an OD600 of 0.4. […] Bacterial suspension (50 μL, OD600 0.4) in buffer was added to the lipopeptide solutions and the rate of substrate hydrolysis was measured at 490 nm.
# Activity of F365 and polymyxin B in the efflux inhibition assay.
# One of the consequences of disruption/permeabilization of the cytoplasmic membrane by polymyxins is the dissipation of the proton gradient across the cytoplasmic membrane. […]
# these compounds are expected to inhibit proton-dependent transport activity across the cytoplasmic membrane including efflux. Efflux activity and its inhibition by F365 was assessed by examining the rates of hydrolysis of a fluorogenic substrate of efflux pumps, Leu-Nap, by intact cells of P. aeruginosa. For these experiments we used two strains of P. aeruginosa, PAM1723 and PAM1626. PAM1723 overexpresses the efflux pump MexAB-OprM and PAM1626 lacks this pump as well as several other pumps that extrude Leu-Nap. […] The rate of production of β-naphthylamine (recorded as an increase in fluorescence) is limited by the rate of entry of Leu-Nap into the cells. […]
# [5] = 90 mg/kg/d IP in three divided doses every 8 h
Compound,bacterial killing in lung at 24 h vs pre-treatment inoculum [1],"Tukey HSD diff, Pre-treatment minus treated group (Log10 CFU/lung) ([1]; 45mg/kg/d)","Tukey HSD diff, Vehicle minus treated group (Log10 CFU/lung) ([1]; 45mg/kg/d)",Log10 CFU/lung ([1]; 45mg/kg/d),bacterial killing in lung at 24 h vs pre-treatment inoculum (A. baumannii FADDI-AB051),"Tukey HSD diff, Pre-treatment minus treated group (Log10 CFU/lung) (A. baumannii FADDI-AB051; 45mg/kg/d)","Tukey HSD diff, Vehicle minus treated group (Log10 CFU/lung) (A. baumannii FADDI-AB051; 45mg/kg/d)",Log10 CFU/lung (A. baumannii FADDI-AB051; 45mg/kg/d),bacterial killing in lung at 24 h vs pre-treatment inoculum [2],"Tukey HSD diff, Pre-treatment minus treated group (Log10 CFU/lung) ([2]; 45mg/kg/d)","Tukey HSD diff, Vehicle minus treated group (Log10 CFU/lung) ([2]; 45mg/kg/d)",Log10 CFU/lung ([2]; 45mg/kg/d),"half-life ([3]; mouse, in vivo, ip, 5 mg/kg) [min]","IC50, inhibition of efflux activity [4] [µg/mL]",other results
"CC[C@@H]1NC(=O)[C@@H](CC(C)C)NC(=O)[C@H](CCN)NC(=O)[C@@H](NC(=O)[C@H](CN)NC(=O)[C@@H](NC(=O)[C@H](CCN)NC(=O)c2ccc(Cl)cc2Cl)[C@@H](C)O)CCNC(=O)[C@H]([C@@H](C)O)NC(=O)[C@H](CCN)NC(=O)[C@H](CCN)NC1=O [Lipopeptide F365] (HELM PEPTIDE1{[O=C(c1ccc(Cl)cc1Cl)[*:2]].[Dab].T.[NC[C@H](N[*:1])C(=O)[*:2]].[Dab].[Dab].[dL].[Abu].[Dab].[Dab].T}$PEPTIDE1,PEPTIDE1,5:R3-11:R2$$$V2.0)",did not show any significant killing,-0.4375,2.481,7.09 Log10 CFU/lung and 6.80 Log10 CFU/lung and 6.82 Log10 CFU/lung and 6.79 Log10 CFU/lung,did not show any significant killing,-1.2425,0.7467,7.89 Log10 CFU/lung and 8.25 Log10 CFU/lung and 7.87 Log10 CFU/lung and 7.93 Log10 CFU/lung,did not show any significant killing,0.265,2.146,4.76 Log10 CFU/lung and 7.31 Log10 CFU/lung and 6.40 Log10 CFU/lung and 7.13 Log10 CFU/lung,18,4.2 ± 1.5,"bacterial killing in lung at 24 h [1, 5]: bacterial killing; Tukey HSD diff, Pre-treatment minus treated group (Log10 CFU/lung) ([1]; 90mg/kg/d): 1.005; Tukey HSD diff, Vehicle minus treated group (Log10 CFU/lung) ([1]; 90mg/kg/d): 3.9235; Log10 CFU/lung ([1]; 90mg/kg/d): 5.12 Log10 CFU/lung and 5.34 Log10 CFU/lung and 5.83 Log10 CFU/lung and 5.44 Log10 CFU/lung; bacterial killing in lung at 24 h (A. baumannii FADDI-AB051; [5]): bacterial killing; Tukey HSD diff, Pre-treatment minus treated group (Log10 CFU/lung) (A. baumannii FADDI-AB051; 90mg/kg/d): 2.8025; Tukey HSD diff, Vehicle minus treated group (Log10 CFU/lung) (A. baumannii FADDI-AB051; 90mg/kg/d): 4.792; Log10 CFU/lung (A. baumannii FADDI-AB051; 90mg/kg/d): 3.25 Log10 CFU/lung and 3.88 Log10 CFU/lung and 6.08 Log10 CFU/lung and 2.55 Log10 CFU/lung; bacterial killing in lung at 24 h [2, 5]: bacterial killing; Tukey HSD diff, Pre-treatment minus treated group (Log10 CFU/lung) ([2]; 90mg/kg/d): 2.6475; Tukey HSD diff, Vehicle minus treated group (Log10 CFU/lung) ([2]; 90mg/kg/d): 4.5285; Log10 CFU/lung ([2]; 90mg/kg/d): 5.21 Log10 CFU/lung and 3.53 Log10 CFU/lung and 3.48 Log10 CFU/lung and 3.85 Log10 CFU/lung; Plasma concentration, single mouse ([3]; 5 mg/kg IP, 0.28 h): 6.79; AUC(0-inf) ([3]; mouse, in vivo, ip, 5 mg/kg): 7920 ng·h/mL"
Polymyxin B [reference compound],did not show any significant killing,-1.2575,1.661,7.47 Log10 CFU/lung and 7.01 Log10 CFU/lung and 7.92 Log10 CFU/lung and 8.38 Log10 CFU/lung,did not show any significant killing,-1.5825,0.4067,8.40 Log10 CFU/lung and 8.27 Log10 CFU/lung and 8.53 Log10 CFU/lung and 8.10 Log10 CFU/lung,did not show any significant killing,-0.6875,1.1935,7.24 Log10 CFU/lung and 7.26 Log10 CFU/lung and 7.84 Log10 CFU/lung and 7.07 Log10 CFU/lung,84,7.6 ± 1.4,
